# Assay results reported in the supplement of paper PMC11208160.
# Assay: recombinant UMI read abundance after kanamycin selection (control-corrected) (log10(CPM+1)); higher = more efficient recombination; extreme values may be limits of the assay; sequences stand for … in AGTGCAGAGAAAATCGGCCAGTTTTCTCTGCCTGCAGTCCGCATGCCGTGGGACCCCTTGGGTTCTAACCTGTTGCCTAGATTTATGCAGCGGACTGCCTTTCTCCCAAAGTGATAAACCGG…AGGTTGGTTTCACT; site = the 11-nt donor
# Method: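 Pooled E. coli donor-specificity screen for the IS621 bridge recombinase. Each library member carries a reprogrammed 11-nt donor and a full-length LE bridge RNA expressed in cis from the natural promoter, with a paired donor-binding loop (8-nt LDG + 4-nt RDG) and a target-binding loop fixed to T5. It is co-electroporated with a T5 target plasmid; recombinase is induced with 0.07 mM IPTG and recombinants are selected on kanamycin. UMIs are counted as CPM, averaged over two biological replicates and corrected by the unselected control. Molecule = full bridge RNA written as DNA, built from the T5 scaffold: LDG = donor specificity nt 1-8, RDG = reverse complement of nt 8-11.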
# 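Also: IS621 bridge recombinase in Escherichia coli cells against a fixed T5 target plasmid.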
row,Sequence,recombinant UMI read abundance (log10)
1,ACACGAACATGGACCGGTTTTCCCGGTAATCCGTATTTGTC (site ACACGACCTGA),0
2,ACACGAACATGGACCGGTTTTCCCGGTAATCCGTATTTGTC (site ACACGAGCTGA),0
3,ACACGAACATGGACCGGTTTTCCCGGTAATCCGTATTTGTC (site ACACGATCTGA),1.55
4,ACACGAACATGGACCGGTTTTCCCGGTAATCCGTATTTGTC (site ACACGCACTGA),0
5,ACACGAACATGGACCGGTTTTCCCGGTAATCCGTATTTGTC (site ACACGGACTGA),1.61
6,ACACGAACATGGACCGGTTTTCCCGGTAATCCGTATTTGTC (site ACACGTACTGA),0
7,ACACGAACATGGACCGGTTTTCCCGGTAATCCGTATTTGTC (site ACACTAACTGA),0
8,ACACGAACATGGACCGGTTTTCCCGGTAATCCGTATTTGTC (site ACAGGAACTGA),0
9,ACACGAACATGGACCGGTTTTCCCGGTAATCCGTATTTGTC (site ACATGAACTGA),0
10,ACACGAACATGGACCGGTTTTCCCGGTAATCCGTATTTGTC (site ACCCGAACTGA),0
11,ACACGAACATGGACCGGTTTTCCCGGTAATCCGTATTTGTC (site ACGCGAACTGA),0
12,ACACGAACATGGACCGGTTTTCCCGGTAATCCGTATTTGTC (site ACTCGAACTGA),0.747
13,ACACGAACATGGACCGGTTTTCCCGGTAATCCGTATTTGTC (site AGACGAACTGA),0
14,ACACGAACATGGACCGGTTTTCCCGGTAATCCGTATTTGTC (site ATACGAACTGA),0.0105
15,ACACGAACATGGACCGGTTTTCCCGGTAATCCGTATTTGTC (site CCACGAACTGA),0.924
16,ACACGAACATGGACCGGTTTTCCCGGTAATCCGTATTTGTC (site GCACGAACTGA),0
17,ACACGAACATGGACCGGTTTTCCCGGTAATCCGTATTTGTC (site TCACGAACTGA),0
18,ACACGGACATGGACCGGTTTTCCCGGTAATCCGTATTTGGC (site ACACGGACTGC),2.58
19,ACACGTACATGGACCGGTTTTCCCGGTAATCCGTATTTGTC (site ACACGAACTGA),0

row,Sequence,recombinant UMI read abundance (log10)
1,ACACGTACATGGACCGGTTTTCCCGGTAATCCGTATTTGTC (site ACACGCACTGA),0.199
2,ACACGTACATGGACCGGTTTTCCCGGTAATCCGTATTTGTC (site ACACGGACTGA),0
3,ACACGTACATGGACCGGTTTTCCCGGTAATCCGTATTTGTC (site ACACGTACTGA),1.49
4,ACAGACACATGGACCGGTTTTCCCGGTAATCCGTATTTGTC (site ACAGACACTGA),2.7
5,ACAGACCCATGGACCGGTTTTCCCGGTAATCCGTATTTGCC (site ACAGACCCTGG),1.2
6,ACAGCATCATGGACCGGTTTTCCCGGTAATCCGTATTTGCG (site ACAGCATCTCG),2.33
7,ACAGCATCATGGACCGGTTTTCCCGGTAATCCGTATTTGCG (site ACAGTATCTTG),0
8,ACAGCTTCATGGACCGGTTTTCCCGGTAATCCGTATTTGCA (site ACAGCTTCTTG),2.59
9,ACAGCTTCATGGACCGGTTTTCCCGGTAATCCGTATTTGCA (site ACAGTATCTTG),2.16
10,ACAGTACCATGGACCGGTTTTCCCGGTAATCCGTATTTGAA (site ACAGTACCTTT),0.501
11,ACAGTACCATGGACCGGTTTTCCCGGTAATCCGTATTTGAA (site ACAGTATCTTG),0
12,ACAGTATCATGGACCGGTTTTCCCGGTAATCCGTATTTGCA (site AAAATATCTTG),1.79
13,ACAGTATCATGGACCGGTTTTCCCGGTAATCCGTATTTGCA (site AAAGAATCTTG),1.57
14,ACAGTATCATGGACCGGTTTTCCCGGTAATCCGTATTTGCA (site AAAGTAACTTG),0.587
15,ACAGTATCATGGACCGGTTTTCCCGGTAATCCGTATTTGCA (site AAAGTATCTAG),0
16,ACAGTATCATGGACCGGTTTTCCCGGTAATCCGTATTTGCA (site AAAGTATCTTC),0.00296
17,ACAGTATCATGGACCGGTTTTCCCGGTAATCCGTATTTGCA (site AAAGTATCTTG),2.1
18,ACAGTATCATGGACCGGTTTTCCCGGTAATCCGTATTTGCA (site AAAGTCTCTTG),0.0144
19,ACAGTATCATGGACCGGTTTTCCCGGTAATCCGTATTTGCA (site AACGTATCTTG),2.46

row,Sequence,recombinant UMI read abundance (log10)
1,ACAGTATCATGGACCGGTTTTCCCGGTAATCCGTATTTGCA (site ACAAAATCTTG),0.724
2,ACAGTATCATGGACCGGTTTTCCCGGTAATCCGTATTTGCA (site ACAATAACTTG),0
3,ACAGTATCATGGACCGGTTTTCCCGGTAATCCGTATTTGCA (site ACAATATCTAG),0.00607
4,ACAGTATCATGGACCGGTTTTCCCGGTAATCCGTATTTGCA (site ACAATATCTTC),0.00345
5,ACAGTATCATGGACCGGTTTTCCCGGTAATCCGTATTTGCA (site ACAATATCTTG),2.8
6,ACAGTATCATGGACCGGTTTTCCCGGTAATCCGTATTTGCA (site ACAATCTCTTG),0
7,ACAGTATCATGGACCGGTTTTCCCGGTAATCCGTATTTGCA (site ACACCATCTTG),0.786
8,ACAGTATCATGGACCGGTTTTCCCGGTAATCCGTATTTGCA (site ACACTAGCTTG),0.00526
9,ACAGTATCATGGACCGGTTTTCCCGGTAATCCGTATTTGCA (site ACACTATCTCG),0
10,ACAGTATCATGGACCGGTTTTCCCGGTAATCCGTATTTGCA (site ACACTATCTTA),0
11,ACAGTATCATGGACCGGTTTTCCCGGTAATCCGTATTTGCA (site ACACTATCTTG),1.61
12,ACAGTATCATGGACCGGTTTTCCCGGTAATCCGTATTTGCA (site ACACTTTCTTG),0
13,ACAGTATCATGGACCGGTTTTCCCGGTAATCCGTATTTGCA (site ACAGAAACTTG),0
14,ACAGTATCATGGACCGGTTTTCCCGGTAATCCGTATTTGCA (site ACAGAATCTAG),0
15,ACAGTATCATGGACCGGTTTTCCCGGTAATCCGTATTTGCA (site ACAGAATCTTC),0.287
16,ACAGTATCATGGACCGGTTTTCCCGGTAATCCGTATTTGCA (site ACAGAATCTTG),2.53
17,ACAGTATCATGGACCGGTTTTCCCGGTAATCCGTATTTGCA (site ACAGACTCTTG),1.68
18,ACAGTATCATGGACCGGTTTTCCCGGTAATCCGTATTTGCA (site ACAGCAGCTTG),0.00322
19,ACAGTATCATGGACCGGTTTTCCCGGTAATCCGTATTTGCA (site ACAGCATCTCG),0.00554
